US10280146B2, “Pyrimidone compounds used as Lp-PLA2 inhibitors and pharmaceutical compositions thereof” (Shanghai Institute of Materia Medica, Chinese Academy of …, priority 2014, dated 2019)

Tests used:
[1] = tested on: STZ-induced diabetic rats; assay: Retinal thickness of STZ-induced diabetic rats, long-term administration; type: in vivo, rat; details: 25 mg/kg/day oral, 4 weeks
Excerpt: Test compound: […] Positive control: Darapladib, dissolved in ultrapure water. […] All SD rats were preconditioned for 3-5 days. […] The diabetic model was established when the blood glucose of the rats was more than 10 mmol/L. […] The rats were administrated once a day. […] The eyeballs of the rats were removed, frozen and sectioned and the thickness of each slice was 8 μm. The slice was stained with conventional hematoxylin/eosin and photographed with a 400-fold optical microscope (Eclipse 80i, Nikon). The thickness of the retina was analyzed using the software Image-Pro plus 6.0. Five points were selected in each photo. Statistical analysis was performed with the EXCEL 2007 software. […] The experiment results were evaluated by Student T test.

[2] = target: T1, Lp-PLA2 (rabbit serum as the source of enzyme) (Oryctolagus cuniculus, UniProt G1SE06); assay: In vitro inhibitory activity on Lp-PLA2, rabbit serum as the source of enzyme (2-thio-PAF/DTNB); type: biochemical; details: read-out: Inhibitory ratio, % on Lp-PLA2 (rabbit serum as the source of enzyme); for inhibition at 0.01 µM: 10 nM compound, — = no inhibitory activity; for inhibition at 0.1 µM: 100 nM compound; for inhibition at 1 µM: 1 μM compound
T1 construct: Rabbit Serum as the Source of Enzyme; from tissue; host or cells: rabbit serum
T1 sequence (G1SE06 22-423): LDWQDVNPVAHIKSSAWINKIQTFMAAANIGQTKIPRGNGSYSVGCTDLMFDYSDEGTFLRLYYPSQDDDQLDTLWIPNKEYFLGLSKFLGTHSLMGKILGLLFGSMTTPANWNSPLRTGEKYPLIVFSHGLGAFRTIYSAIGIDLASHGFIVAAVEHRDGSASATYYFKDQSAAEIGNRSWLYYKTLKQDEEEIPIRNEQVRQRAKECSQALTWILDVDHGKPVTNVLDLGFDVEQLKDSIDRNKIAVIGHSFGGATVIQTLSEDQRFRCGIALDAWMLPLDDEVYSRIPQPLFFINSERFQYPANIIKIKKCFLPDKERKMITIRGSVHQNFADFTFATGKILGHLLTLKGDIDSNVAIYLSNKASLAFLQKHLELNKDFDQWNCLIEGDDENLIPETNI
Experimental: (§1) 0.1M Tris-HCl, 1 mM EGTA, PH 7.2
(§2) Anhydrous ethanol was used as solvent to make a 25 mg/ml mother liquor. The solution was aliquoted, stored at −80° C. and diluted 900 times before use (about 50 μM of concentration)
(§3) 3) DTNB (5,5′-dithio-bis-(2-nitrobenzoic acid), Sigma, Lot D8130)
(§4) The solution was prepared just before use.
(§5) 4) Compound was dissolved in DMSO to a suitable concentration.
(§6) Lp-PLA2 activity was determined by using 2-thio-PAF as substrate. The thiol group produced upon the hydrolysis of 2-thio-PAF can react with DTNB to generate a yellow substance. The optical density at 414 nm can be detected to reflect Lp-PLA2 activity.
1.1 Determination of the Inhibitory Activity of the Compounds on Lp-PLA2 (Rabbit Serum as the Source of Enzyme) (In Vitro)
1) The corresponding reagents were added according to Table 1 and mixed uniformly by shaking.
(§7) 2) 10 μL of DTNB was added to each well.
(§8) 3) 150 μL of 2-thio-PAF was added to each well and shaken for 15 s on a microplate reader to mix the liquid in the well uniformly.

[3] = tested on: Lp-PLA2 (rat serum as the source of enzyme); assay: In vitro inhibitory activity on Lp-PLA2, rat serum as the source of enzyme (2-thio-PAF/DTNB); type: biochemical; design: key: “—” indicates no inhibitory activity
Experimental: as §1, §2, §3, §4, §5, §6
1.3 Determination of the Inhibitory Activity of the Compounds on Lp-PLA2 (Rat Serum as the Source of Enzyme (In Vitro)
1) The corresponding reagents were added according to Table 5 and mixed uniformly by shaking.
as §7, §8

[4] = target: T2, Lp-PLA2 (human recombinant enzyme as the source of enzyme) (Homo sapiens, UniProt Q13093); assay: In vitro inhibitory activity on Lp-PLA2, human recombinant enzyme (2-thio-PAF/DTNB); type: biochemical; details: read-out: inhibitory ratio, % on Lp-PLA2 (human recombinant enzyme as the source of enzyme); for inhibition at 0.01 µM: 10 nM compound; for inhibition at 0.1 µM: 100 nM compound
T2 sequence (Q13093 22-441): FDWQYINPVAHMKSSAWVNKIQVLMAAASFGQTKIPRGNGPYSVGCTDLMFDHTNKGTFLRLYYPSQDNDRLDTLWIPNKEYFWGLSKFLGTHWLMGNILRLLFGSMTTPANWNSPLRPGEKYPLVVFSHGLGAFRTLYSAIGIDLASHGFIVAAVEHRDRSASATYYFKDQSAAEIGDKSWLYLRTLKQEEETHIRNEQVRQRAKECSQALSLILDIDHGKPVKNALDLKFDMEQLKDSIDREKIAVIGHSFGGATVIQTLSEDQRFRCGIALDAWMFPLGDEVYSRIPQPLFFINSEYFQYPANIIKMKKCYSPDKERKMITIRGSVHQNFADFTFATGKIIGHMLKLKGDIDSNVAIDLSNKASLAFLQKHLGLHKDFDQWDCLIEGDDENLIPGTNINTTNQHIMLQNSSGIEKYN
Experimental: as §1, §2, §3, §4, §5, §6
1.2 Determination of the Inhibitory Activity of the Compounds on Lp-PLA2 (Human Recombinant Enzyme as the Source of Enzyme) (In Vitro)
1) The corresponding reagents were added according to Table 3 and mixed uniformly by shaking.
as §7, §8

[5] = tested on: spontaneous type 2 diabetes ZDF rats; assay: Long-term administration in spontaneous type 2 diabetes ZDF rats (blood glucose and other biochemical indexes); type: in vivo, rat
Excerpt: Positive control: metformin, produced by China-US Shanghai Squibb Pharmaceutical Co., Ltd.; dissolved in ultra-pure water.
Varieties: ZDF rats, ZL rats; Grade: SPF grade; Age: 56-62 days; Gender: Male; Source: Beijing Weitong Lihua Experimental Animal Co., Ltd.
The kits for total cholesterol (TC), triglyceride (TG), high density lipoprotein cholesterol (HDL-C), low density lipoprotein cholesterol (LDL-C), blood glucose (GLU), aspartate transferase (AST), alanine aminotransferase (ALT), alkaline phosphatase (ALP), urea (BUN), creatinine (CREA) and the like were purchased from Shanghai Shenneng Desai Diagnostic Technology Co., Ltd. The reagents for glycosylated hemoglobin (HbAlc) assay was purchased from Trinity Biotech Corporation. Insulin ELISA Assay Kit was purchased from BertinPharma Corporation. Urine microalbumin (mALB) and other ELISA kits were purchased from Nanjing Jiancheng Bioengineering Institute.
Two ZDF rat groups were orally administered with the compound of example 11 and metformin, respectively. […] The dose of metformin was 300 mg/kg/day. Both were administered for a period of 6 weeks.
Thirty male ZDF rats (56˜62 days old) were fed with Purina #5008 feed (purchased from Nongbiao Purina Feed Co., Ltd.) and the other 6 ZL rats were fed with normal diet as normal control. After fed for 2 weeks, the empty body weights of the fasting rats (fasting for 10 h, free to drink water) were weighed. 0.3 mL blood was collected through tail vein and placed in EDTA anticoagulant tube for the determination of glycosylated hemoglobin (HbAlc). Another 0.5 mL blood was collected and centrifugated at 3000 rpm for 10 min to separate serum which then was determined by automatic biochemical analyzer Model 7020. The serum was separated and then blood glucose and blood lipid (GLU, TC, TG) and hepatorenal function (ALT, AST, ALP, BUN, CREA) were determined. The ZDF rats with blood glucose far from the mean value or having other abnormal indexes were removed and 18 ZDF rats with GLU close to the mean value were selected.
Rats in each group were given the corresponding drug or solvent by gavage through oral once a day in the morning for 6 continuous weeks. Another 6 ZL rats were taken as normal control group.
Every 2 weeks the rats were fasted but allowed free drinking for 10 h, the empty body weight was weighed and 0.5 mL blood was collected through the tail vein to determine the blood glucose levels. The levels of insulin, glycosylated hemoglobin and triglyceride were measured at the 4th week of administration and at the end of the administration. The levels of low density lipoprotein and high density lipoprotein were measured at the 6th week of administration. The urine samples were collected once before the end of the administration and 24 h (11:00 am to 11:00 am the next day) urine samples were collected to detect urinary albumin content in urine.
Statistical analysis was performed with EXCEL 2007 software.

[6] = 10 nM compound, — = no inhibitory activity
[7] = oral 25 then 10 mg/kg/day, 4 weeks after the administration
[8] = oral 25 then 10 mg/kg/day, 6 weeks after the administration

## Cn1c(N2CCOCC2)cc(OCc2ccc(Oc3ccc(Cl)c(C(F)(F)F)c3)c(C#N)c2)nc1=O [Example 27, 2-(4-chloro-3-(trifluoromethyl)phenoxy)-5-((1-methyl-6-morpholinyl-2-oxo-1,2-dihydropyrimidin-4-oxy)methyl)benzonitrile]
[1]
  retinal thickness compared with the model control group: significantly decreased

## Cn1c(N2CCOCC2)cc(OCc2cc(F)c(Oc3ccnc(C(F)(F)F)c3)c(F)c2)nc1=O [Example 29]
[2]
  inhibition at 0.01 µM: 22.6%
  inhibition at 0.1 µM: 83.5%
  inhibition at 1 µM: 97.1%

## COc1ccc(-c2cc(OCc3cc(F)c(Oc4ccc(Cl)c(C(F)(F)F)c4)c(F)c3)nc(=O)n2C)cc1 [Example 20, 4-((4-(4-chloro-3-(trifluoromethyl)phenoxy)-3,5-difluorobenzyl)oxy)-6-(4-methoxyphenyl)-1-methylpyrimidin-2(1H)-one]
[3]; [6]
  inhibitory ratio, % on Lp-PLA2 (rat serum as the source of enzyme): —
[3]; 100 nM compound
  inhibitory ratio, % on Lp-PLA2 (rat serum as the source of enzyme): 43.27%
[4]
  inhibition at 0.01 µM: 46.9%
  inhibition at 0.1 µM: 90.4%
[2]
  inhibition at 0.1 µM: 54.2%

## CCN(CC)CCN(Cc1ccc(-c2ccc(C(F)(F)F)cc2)cc1)C(=O)Cn1c(SCc2ccc(F)cc2)nc(=O)c2c1CCC2 [darapladib, reference compound]
[1]
  retinal thickness compared with the model control group: significantly decreased

## Cn1c(N2CCOCC2)cc(OCc2cc(F)c(Oc3ccc(C(F)(F)F)nc3)c(F)c2)nc1=O [Example 26]
[2]
  inhibition at 0.1 µM: 57.3%
  inhibition at 1 µM: 93.5%

## CCn1c(N2CCOCC2)cc(OCc2cc(F)c(Oc3ccc(Cl)c(C(F)(F)F)c3)c(F)c2)nc1=O [Example 34, 4-(4-(4-chloro-3-(trifluoromethyl)phenoxy-3,5-difluorobenzyl)oxy)-1-ethyl-6-morpholinopyrimidin-2(1H)-one]
[4]
  inhibition at 0.01 µM: 53.9%
  inhibition at 0.1 µM: 95.6%
[2]
  inhibition at 0.1 µM: 54.1%
  inhibition at 1 µM: 95.6%

## CN(C)c1cc(OCc2cc(F)c(Oc3ccc(Cl)c(C(F)(F)F)c3)c(F)c2)nc(=O)n1C [Example 11]
[1]
  retinal thickness compared with the model control group: significantly decreased
[5]; oral 25 mg/kg/day first 4 days then 10 mg/kg/day, 2 weeks, 4 weeks and 6 weeks after administration
  blood glucose level compared with the model control group: significantly decreased
[5]; [7]
  insulin level compared with the model control group: significantly increased
  triglyceride level compared with the model control group: significantly decreased
[5]; oral 25 then 10 mg/kg/day, 4 weeks and 6 weeks after the administration
  glycosylated hemoglobin levels compared to the model control group: significantly reduced
[5]; oral 25 then 10 mg/kg/day, 6 weeks
  insulin level compared with the model control group: remarkably increased
[5]; [8]
  high-density lipoprotein level compared with the model control group: no significant change
  level of low-density lipoprotein compared with the model control group: significantly reduced
[5]; oral 25 then 10 mg/kg/day, 24 h urine, 6 weeks after the administration
  urinary albumin levels in the urine compared with the model control group: significantly reduced

## Cn1c(N2CCOCC2)cc(OCCc2cc(F)c(Oc3ccc(Cl)c(C(F)(F)F)c3)c(F)c2)nc1=O [Example 5, 4-(4-(4-chloro-3-(trifluoromethyl)phenoxy)-3,5-difluorophenethyloxy)-1-methyl-6-morpholinopyrimidin-2(1H)-one]
[3]; [6]
  inhibitory ratio, % on Lp-PLA2 (rat serum as the source of enzyme): 18.21%
[3]; 100 nM compound
  inhibitory ratio, % on Lp-PLA2 (rat serum as the source of enzyme): 73.23%
[4]
  inhibition at 0.01 µM: ~90%
  inhibition at 0.1 µM: 100%
[2]
  inhibition at 0.01 µM: 49.2%
  inhibition at 0.1 µM: 93.8%
  inhibition at 1 µM: 97.3%

## Cn1c(N2CCC(F)(F)C2)cc(OCc2cc(F)c(Oc3ccc(Cl)c(C(F)(F)F)c3)c(F)c2)nc1=O [Example 16]
[3]; [6]
  inhibitory ratio, % on Lp-PLA2 (rat serum as the source of enzyme): 6.84%
[3]; 100 nM compound
  inhibitory ratio, % on Lp-PLA2 (rat serum as the source of enzyme): 50.35%
[4]
  inhibition at 0.01 µM: 55.3%
  inhibition at 0.1 µM: 92.4%
[2]
  inhibition at 0.01 µM: 13.2%
  inhibition at 0.1 µM: 77.4%
  inhibition at 1 µM: 96.4%

## Cn1c(-c2ccccc2)cc(OCc2cc(F)c(Oc3ccc(Cl)c(C(F)(F)F)c3)c(F)c2)nc1=O [Example 19, 4-((4-(4-chloro-3-(trifluoromethyl)phenoxy)-3,5-difluorobenzyl)oxy)-1-methyl-6-phenylpyrimidin-2(1H)-one]
[3]; [6]
  inhibitory ratio, % on Lp-PLA2 (rat serum as the source of enzyme): —
[3]; 100 nM compound
  inhibitory ratio, % on Lp-PLA2 (rat serum as the source of enzyme): 18.06%
[4]
  inhibition at 0.01 µM: 53.6%
  inhibition at 0.1 µM: 89.7%
[2]
  inhibition at 0.1 µM: 59.7%
